US12172992B2, “Pyrimidines for degrading Bruton's tyrosine kinase” (AbbVie Inc., priority 2022, dated 2024)

How the values were obtained:
[1] = molecular target: BTK protein in human whole blood (Homo sapiens (Human), UniProt Q06187); experiment: Btk protein in human whole blood MSD ELISA based assay (BTK degradation); type: cell-based; details: 6 hours, maximum BTK degradation compared to DMSO only treated samples, read-out: hWB BTK dMax (%)
Description: Btk protein degradation was tested using an Meso Scale Discovery-ELISA system (MSD-ELISA): (1) Test compounds were added to human whole blood; (2) human whole blood cells treated with test compounds were lysed; (3) lysed cells were treated with capture antibody, an antibody to Btk; (4) lysed cells were treated with […] to Btk; and (5) lysed cells were treated with anti-mouse antibody (tagged).
Specifically, about 80 μl of fresh human whole blood from healthy donors was transferred into each well of a 96-well V-bottom plate (Costar, Cat No. 3894). Using a TECAN™ D300e Digital Dispenser (Tecan)), 1:4 serially diluted compounds [(8 pt assay) in DMSO solution (final 0.2%) starting at 3 μM top concentration], were added in duplicate. Thereafter, plates were placed in a 37° C. incubator and incubated for 6 hours.
At the end of incubation, 80 μl of 2×CST lysis buffer (Cell Signaling Technology, Cat No. 9803), prepared from a 10× stock solution, was added per well to lyse the blood. Plates were then sealed with a plate sealer and the samples were frozen overnight at −80° C.
Total amount of BTK protein remaining in the blood samples after compound treatment was measured using MSD-ELISA. After thawing the frozen plates, blood lysates were mixed thoroughly and transferred to small spot high-bind MSD plates (Meso Scale Discovery, Cat No. L45XB-3) and coated with capturing antibody, rabbit anti-human BTK (D3H5) (Cell Signaling Technology, Cat No. 8547CF). Thereafter, primary detection antibody, mouse anti-human BTK monoclonal antibody, (BD Biosciences, Cat No. 611117) and secondary detection antibody, anti-mouse SULFO-TAG (Meso Scale Discovery, Cat No. R32AC-1) were added. The assay plates were read on an MSD S600 plate reader by the addition of 2×MSD read buffer (Meso Scale Discovery, R92TC-1). All reagent transfers, including blood lysis, was conducted using a Biomed i7 liquid handler. From the dose response curves, DC50 values were calculated by averaging data from duplicate experiments. and Curve fitting was done by non-linear regression using GraphPad Prism. The DC50 values are reported in Table 2 in the hWB BTK DC50 (nM) column The Dmax values represent the maximum amount of BTK degradation observed upon compound treatment compared to DMSO only treated samples. The dMax (%) values are reported in Table 2 in the hWB BTK dMax (%) column.

BTK in mouse bone marrow = BTK in mouse bone marrow (Mus musculus (Mouse), UniProt P35991); experiment: Mouse Bone Marrow Assay (MSD ELISA of BTK degradation in bone marrow); type: in vivo; details: female C57BL/6J mice, single dose of Dose A, bone marrow collected after 24 hours
Chain of BTK in mouse bone marrow (P35991 whole entry): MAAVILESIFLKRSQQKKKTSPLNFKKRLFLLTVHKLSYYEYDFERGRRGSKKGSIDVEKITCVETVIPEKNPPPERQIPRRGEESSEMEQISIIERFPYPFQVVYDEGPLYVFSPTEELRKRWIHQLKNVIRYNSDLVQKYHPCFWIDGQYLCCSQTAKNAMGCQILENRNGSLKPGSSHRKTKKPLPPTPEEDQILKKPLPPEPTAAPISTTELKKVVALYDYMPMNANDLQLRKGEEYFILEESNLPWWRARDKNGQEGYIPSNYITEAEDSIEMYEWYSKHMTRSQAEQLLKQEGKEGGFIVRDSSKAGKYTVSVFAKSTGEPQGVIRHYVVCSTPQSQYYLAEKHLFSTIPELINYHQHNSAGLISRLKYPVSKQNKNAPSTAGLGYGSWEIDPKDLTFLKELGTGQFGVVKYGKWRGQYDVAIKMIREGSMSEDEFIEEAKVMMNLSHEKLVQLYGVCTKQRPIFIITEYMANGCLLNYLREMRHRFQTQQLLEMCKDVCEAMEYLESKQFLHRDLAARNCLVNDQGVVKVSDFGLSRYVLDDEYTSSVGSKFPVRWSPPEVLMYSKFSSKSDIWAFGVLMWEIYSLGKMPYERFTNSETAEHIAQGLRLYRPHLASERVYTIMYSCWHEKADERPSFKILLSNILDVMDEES
Description: Female C57BL/6J mice (Jackson Laboratories) were used for this study. Compounds or vehicle/control were prepped with EtOH; PEG-400; Phosal 53 MCT (10:30:60, v/v). Four mice were tested per compound or vehicle/control. On Day 1, mice were administered a single dose of Dose A. On Day 2 (after 24 hours), tissue (bone marrow) was collected from one hind leg per mouse.
An MSD (Meso Scale Discovery) ELISA (enzyme-linked immunosorbent assay) based assay was used to determine BTK degradation in mouse bone marrow. The following materials and equipment were used: 10% NP40 solution (nonionic polyoxyethylene surfactant, ThermoFisher, cat no. 28324); protease inhibitor mini tablet (Roche, cat no. 05 892 970 001); PhosphoSTOP™ tablet (Roche, cat no. 04 906 837 001); Pierce™ BCA Protein Assay Kit (Thermofisher, Cat No. 23225); Precellys® 2 mL lysing tube with 2.8 mm beads (VWR, cat no. 10032-756); Bertin Precellys® 24/Cryolys® cooling system; 96-well MSD streptavidin pre-coated plates (MSD, cat no. L15SA-1); MSD Blocker A (MSD, cat no. R93BA-4); capture antibody, biotinylated BTK mAb (BD Biosciences, cat no. 624008; custom order); primary detection antibody, BTK RpAb (rabbit polyclonal antibody, CST, cat no. 8547S, D3H5 clone); secondary detection antibody, anti-Rabbit-Sulfo-Tag (MSD, cat no. R32AB-1); read Buffer, 4× (MSD, cat no. R92TC-1); recombinant BTK protein (Thermofisher, cat no. PR5442A); MSD Tris Wash Buffer (10×) (MSD, cat no. R61TX-1); PBS (phosphate-buffered saline); deionized water (diH2O); Lysis Buffer [0.2% NP40 in PBS+Protease Inhibitor tablet (1 tablet/10 mL)+PhosphoSTOP tablet (1 tablet/10 mL)]; 3% MSD Blocker A [MSD Blocker A+450 mL diH2O+50 mL]; and 10×MSD Tris Wash Buffer.
Lysis buffer [(PBS+0.2% NP40+PI (protease inhibitor)+PhosphoSTOP)] was prepared and put on ice until it was fully cold. Ice cold lysis buffer […] was added to each Precellys® tube containing beads and bone marrow sample. Sample tubes were transferred into Precellys® machine and homogenized using 5000 rpm—2×20 seconds. The sample lysates were centrifuged at 14,000 rpm for 20 minutes at 4° C. after homogenizing.
The protein concentration was determined using Pierce™ BCA Protein Assay Kit following manufacturer's recommended protocol. The protein normalized working solution was prepared, using 30 μg protein per sample lysate for assay.
A 300 ng/ml working stock solution of recombinant BTK protein in lysis buffer was prepared, and the sample was serially diluted at 3-fold dilution (10-point assay, highest concentration was 300 ng/mL and lowest concentration was 0.015 ng/mL)
MSD plate coating: Coating antibody (biotinylated-BTK mAb) stock solution was prepared at 1 μg/mL in PBS buffer. 50 μL/well capture antibody (Biotinylated BTK mAb) solution was added, and the plates were shaken gently at ambient temperature for two hours. The plates were washed 3 times with 1×MSD Tris Wash Buffer in a plate washer (300 μL/well), and the plates were blocked with 3% MSD Blocker A (150 μL/well). The plates were incubated for an additional 1-2 hours at ambient temperature with gentle shaking. The plates were washed 3 times with 1×MSD wash buffer using plate washer. Bone marrow lysates (30 μg) at a final volume of 50 μL/well were added into the plates. The serially diluted standard samples were added to the same plates at a final volume of 50 μL/well. The plates were incubated overnight at 4° C. with gentle shaking.
The plates were washed three times with 1×MSD wash buffer (prepared from 10× concentration buffer) using plate washer. Primary detection antibody at 50 μL/well was added (BTK RpAb; 1:1000 dilution in 1% MSD Blocker A). The plates were incubated for two hours at ambient temperature with gentle shaking. The plates were washed three times with 1×MSD wash buffer using plate washer. Anti-Rabbit-SULFO-TAG secondary antibodies (50 μl/well) were added, 1:500 diluted in 1% MSD Blocker A, and the plates were incubated for one to two hours at ambient temperature. […]

Chain of BTK protein in human whole blood (Q06187 whole entry): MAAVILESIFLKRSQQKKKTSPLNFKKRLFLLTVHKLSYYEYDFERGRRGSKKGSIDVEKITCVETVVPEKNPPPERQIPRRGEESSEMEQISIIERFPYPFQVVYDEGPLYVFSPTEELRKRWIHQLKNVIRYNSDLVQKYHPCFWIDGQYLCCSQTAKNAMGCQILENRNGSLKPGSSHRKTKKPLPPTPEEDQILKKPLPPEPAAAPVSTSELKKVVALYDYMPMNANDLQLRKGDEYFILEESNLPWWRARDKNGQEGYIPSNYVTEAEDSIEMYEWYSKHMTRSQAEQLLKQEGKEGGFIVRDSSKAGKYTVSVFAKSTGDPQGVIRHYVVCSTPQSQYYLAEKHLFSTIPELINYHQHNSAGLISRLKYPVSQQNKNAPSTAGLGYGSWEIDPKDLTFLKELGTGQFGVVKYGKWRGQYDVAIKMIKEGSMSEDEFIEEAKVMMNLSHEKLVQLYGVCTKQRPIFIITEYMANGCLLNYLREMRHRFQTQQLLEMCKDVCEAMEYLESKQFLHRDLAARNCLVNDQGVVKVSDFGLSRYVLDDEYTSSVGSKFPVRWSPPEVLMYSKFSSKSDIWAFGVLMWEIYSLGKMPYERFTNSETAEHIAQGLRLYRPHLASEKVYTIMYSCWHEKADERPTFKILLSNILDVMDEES

SMILES	Dmax [1]	Mouse Bone Marrow (%) (% remaining BTK, vehicle versus treated) (BTK in mouse bone marrow)
Cc1cc(-c2cc(Nc3ccc(N4CCN(CCc5ccc(N6CCC(=O)NC6=O)cc5)CC4(C)C)cn3)ncn2)ccc1[C@@H](C)NC(=O)c1nc(C(C)(C)C)no1 [Example 9, 3-tert-butyl-N-{(1R)-1-[4-(6-{{5-(4-{2-[4-(2,4-dioxo-1,3-diazinan-1-yl)phenyl]ethyl}-2,2-dimethylpiperazin-1-yl)pyridin-2-yl}amino}pyrimidin-4-yl)-2-methylphenyl]ethyl}-1,2,4-oxadiazole-5-carboxamide]	99.5%	31%
Cc1c([C@@H](C)NC(=O)c2nc(C(C)(C)C)no2)ccc(-c2cc(Nc3ccc(N4CCN(CCc5ccc(N6CCC(=O)NC6=O)cc5)C[C@@H]4C)cn3)ncn2)c1F [Example 10, 3-tert-butyl-N-[(1R)-1-{4-[6-({5-[(2S)-4-{2-[4-(2,4-dioxo-1,3-diazinan-1-yl)phenyl]ethyl}-2-methylpiperazin-1-yl]pyridin-2-yl}amino)pyrimidin-4-yl]-3-fluoro-2-methylphenyl}ethyl]-1,2,4-oxadiazole-5-carboxamide]	98.5%	9%
Cc1c([C@@H](C)NC(=O)c2nc(C(C)(C)C)no2)ccc(-c2cc(Nc3ccc(N4CCN(CCc5ccc(N6CCC(=O)NC6=O)cc5)CC4)cn3)ncn2)c1F [Example 11, 3-tert-butyl-N-{(1R)-1-[4-(6-{[5-(4-{2-[4-(2,4-dioxo-1,3-diazinan-1-yl)phenyl]ethyl}piperazin-1-yl)pyridin-2-yl]amino}pyrimidin-4-yl)-3-fluoro-2-methylphenyl]ethyl}-1,2,4-oxadiazole-5-carboxamide]	97.7%	29%
Cc1cc(-c2cc(Nc3ccc(N4CCN(CCc5ccc(N6CCC(=O)NC6=O)cc5)CC4)cn3)ncn2)c(F)cc1[C@@H](C)NC(=O)c1nc(C(C)(C)C)no1 [Example 12, 3-tert-butyl-N-{(1R)-1-[4-(6-{[5-(4-{2-[4-(2,4-dioxo-1,3-diazinan-1-yl)phenyl]ethyl}piperazin-1-yl)pyridin-2-yl]amino}pyrimidin-4-yl)-5-fluoro-2-methylphenyl]ethyl}-1,2,4-oxadiazole-5-carboxamide]	99.8%	17%
Cc1cc(-c2cc(Nc3ccc(N4CCN(CCc5ccc(N6CCC(=O)NC6=O)cc5)C[C@@H]4C(C)C)cn3)ncn2)ccc1[C@@H](C)NC(=O)c1nc(C(C)(C)C)no1 [Example 13, 3-tert-butyl-N-[(1R)-1-{4-[6-({5-[(2S)-4-{2-[4-(2,4-dioxo-1,3-diazinan-1-yl)phenyl]ethyl}-2-(propan-2-yl)piperazin-1-yl]pyridin-2-yl}amino)pyrimidin-4-yl]-2-methylphenyl}ethyl]-1,2,4-oxadiazole-5-carboxamide]	99%	26%
C[C@@H](NC(=O)c1nc(C(C)(C)C)no1)c1ccc(-c2cc(Nc3ccc(N4CCN(CCc5ccc(N6CCC(=O)NC6=O)cc5)C[C@@H]4C)cn3)ncn2)cc1Cl [Example 14, 3-tert-butyl-N-[(1R)-1-{2-chloro-4-[6-({5-[(2S)-4-{2-[4-(2,4-dioxo-1,3-diazinan-1-yl)phenyl]ethyl}-2-methylpiperazin-1-yl]pyridin-2-yl}amino)pyrimidin-4-yl]phenyl}ethyl]-1,2,4-oxadiazole-5-carboxamide]	99.7%	16%
Cc1cc(-c2cc(Nc3ccc(N4CCN(CCc5ccc(N6CCC(=O)NC6=O)cc5)C[C@@H]4C)cc3)ncn2)ccc1[C@@H](C)NC(=O)c1nc(C(C)(C)C)no1 [Example 18]	99.5%	25%
Cc1cc(-c2cc(Nc3ccc(CCN4CCN(c5ccc(N6CCC(=O)NC6=O)cc5)CC4)cn3)ncn2)ccc1[C@@H](C)NC(=O)c1nc(C(C)(C)C)no1 [Example 19]	100%	51%
